Experimental data as given in ChEMBL document CHEMBL4715764, “ArgTX-636, a polyamine isolated from spider venom: A novel class of melanogenesis inhibitors” (Bioorg Med Chem, 2016).
Active and inactive are the calls of the source. The rule behind the calls is not given here.

Key:
[1] = target: T1, Mushroom tyrosinase (Agaricus bisporus, UniProt O42713+Q00024+C7FF04+C7FF05)
Description: Inhibition of diphenolase activity of mushroom tyrosinase using L-DOPA substrate

[2] = target: T2, Mushroom tyrosinase (Agaricus bisporus) (UniProt O42713+Q00024+C7FF04+C7FF05); experiment: (§1) Inhibition of mushroom tyrosinase using L-DOPA as substrate measured for 15 mins by UV-vis spectrophotometry
[3] = target: T1, Mushroom tyrosinase; experiment: as §1
[4] = target: T2, Mushroom tyrosinase (Agaricus bisporus); experiment: (§2) Inhibition of mushroom tyrosinase using DHICA as substrate measured for 15 mins by UV-vis spectrophotometry
[5] = target: T1, Mushroom tyrosinase; experiment: as §2
[6] = target: T1, Mushroom tyrosinase; experiment: Mixed type inhibition of mushroom tyrosinase using L-DOPA as substrate assessed as inhibitory constant measured for 15 mins by UV-vis spectrophotometry based Line-weaver Burk plot analysis
[7] = target: T1, Mushroom tyrosinase; experiment: Mixed type inhibition of mushroom tyrosinase using L-DOPA as substrate assessed as enzyme-substrate complex constant measured for 15 mins by UV-vis spectrophotometry based Line-weaver Burk plot analysis
[8] = system: B16-F10; experiment: Cytotoxicity against mouse B16-F10 cells assessed as reduction in cell viability at 42.1 uM incubated for 6 hrs by MTT assay; type: cell-based; conditions: b16-f10, 6 h
[9] = system: M4Beu cell line; experiment: Cytotoxicity against human M4Be cells assessed as reduction in cell viability at 42.1 uM incubated for 6 hrs by MTT assay; type: cell-based
[10] = system: B16-F10; experiment: Inhibition of melanin production in mouse B16-F10 cells incubated for 48 hrs; type: functional, cell-based; conditions: dose 0-0.0421 µM
[11] = target: T3, Tyrosinase (Mus musculus) (UniProt P11344); experiment: Inhibition of tyrosinase in mouse B16-F10 cells at 0.421 uM using L-DOPA as substrate incubated for 30 mins followed by substrate addition and measured after 40 mins; type: cell-based; conditions: time 70.0 min
T3 sequence (whole entry): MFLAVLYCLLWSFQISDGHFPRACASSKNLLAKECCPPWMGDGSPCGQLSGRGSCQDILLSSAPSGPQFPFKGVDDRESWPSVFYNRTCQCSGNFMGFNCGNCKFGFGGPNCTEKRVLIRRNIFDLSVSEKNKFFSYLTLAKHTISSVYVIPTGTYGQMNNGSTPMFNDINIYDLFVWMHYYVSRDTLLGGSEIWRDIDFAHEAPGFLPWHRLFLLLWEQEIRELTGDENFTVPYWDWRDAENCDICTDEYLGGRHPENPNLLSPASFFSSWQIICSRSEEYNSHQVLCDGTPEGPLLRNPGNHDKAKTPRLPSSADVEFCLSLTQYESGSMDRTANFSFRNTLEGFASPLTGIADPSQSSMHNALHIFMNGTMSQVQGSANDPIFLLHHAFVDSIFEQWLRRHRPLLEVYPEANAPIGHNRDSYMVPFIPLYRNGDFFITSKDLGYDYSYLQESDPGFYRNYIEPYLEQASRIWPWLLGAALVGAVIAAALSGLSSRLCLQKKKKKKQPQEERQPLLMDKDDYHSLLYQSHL

[12] = system: B16-F10; experiment: Reduction in alpha-MSH-induced tyrosinase expression in mouse B16-F10 cells at 0.041 uM incubated for 48 hrs by Western blot analysis; type: functional, cell-based
[13] = system: B16-F10; experiment: Reduction in alpha-MSH-induced TRP-1 expression in mouse B16-F10 cells at 0.041 uM incubated for 48 hrs by Western blot analysis; type: functional, cell-based

Compound: OC1COC(O)C(O)C1O (racemic)
- IC50 [1]: 0.1 mM

Compound: N=C(N)NCCC[C@H](N)C(=O)NCCCNCCCNCCCCCNC(=O)[C@H](CC(N)=O)NC(=O)Cc1ccc(O)cc1O
- inhibition [2]: Dose-dependent effect
- IC50 [3]: 8.34 µM
- inhibition [4]: Dose-dependent effect
- IC50 [5]: 48.22 µM
- Ki [6]: 10.77 µM
- Ki [7]: 20.36 µM
- Activity [8]: Non-Toxic
- Activity [9]: Non-Toxic
- inhibition [10]: Dose-dependent effect
- inhibition [11]: Active
- inhibition [12]: inactive
- inhibition [13]: Active

Compound: CC1(C)C=Cc2c(cc3c(c2O)C(=O)CC(c2ccc(O)cc2O)O3)O1 (configuration not stated) [DALENIN]
- IC50 [1]: 0.01861 mM

Compound: S=C1NCC(c2ccccc2)O1 (configuration not stated)
- IC50 [1]: 0.042 mM

Compound: CC1(C)S[C@@H]2[C@H](NC(=O)[C@H](N)c3ccc(O)cc3)C(=O)N2[C@H]1C(=O)O [AMOXICILLIN]
- IC50 [1]: 9 mM

Compound: O=C(O)/C=C/c1ccc(Cn2ccnc2)cc1 [OZAGREL]
- IC50 [1]: 3.45 mM
